A short description of series [1]: Distribution coefficient, log D of the compound at pH 7.4. Particulars: octanol/water. The series is classed as physicochemical.
For series [2], the system named is Plasmodium falciparum. Nature of the series: microbe, parasite or virus in culture. As to conditions: K1.
Description: (§1) Antimalarial activity against multidrug-resistant Plasmodium falciparum K1 infected in human red blood cells assessed as 3H-hypoxanthine incorporation after 48 hrs by liquid scintillation counting
The nature of series [3]: Selectivity index, ratio IC50 for rat L6 cells to IC50 for multidrug-resistant Plasmodium falciparum K1 infected in human red blood cells. The format is functional.
The test system of another series is L6. The experiment in a line: Cytotoxicity at rat L6 cells after 72 hrs by microplate alamar blue assay. The format is cell-based.
The next series has as its system Plasmodium berghei. Nature of the series: Antimalarial activity against GFP-transfected Plasmodium berghei strain ANKA infected in NMRI mouse assessed as reduction in parasitemia at 50 mg/kg/day, ip administered for 4 consecutive days measured 24 hrs after last treatment by FACS analysis relative to control. Details: scale not given: the % may be the effect or the level left. The format is functional. Particulars: route intraperitoneal.

The subject of series [4] is Plasmodium falciparum.
Description: as §1

As to `CN(C)CCNc1cc(C(F)(F)F)c(C#N)c2nc3ccccc3n12`, the logD in series [1] was found to be 2.01. For the same molecule, the IC50 in the series on Plasmodium falciparum [2] turned out to be 3.43 µM; with L6 (Rattus norvegicus, L6, 72 h) it was 44.7 µM. The “Ratio IC50” value in series [3] was determined as 13.
On the same counts, the results for `CN(C)CCCNc1cc(-c2ccc(F)cc2)c(C#N)c2nc3ccccc3n12` are 1.45, 0.27 µM, 11.6 µM and 43.
Take `CN(C)CCNc1cc(-c2ccccc2)c(C#N)c2nc3ccccc3n12`: the logD in series [1] worked out at 1.48. In addition, the IC50 was 1.49 µM in the series with Plasmodium falciparum [2] and over 80 µM with L6 (Rattus norvegicus, L6, 72 h). Also, in series [3], the “Ratio IC50” value is listed as over 50.
Taken in the same sequence, the figures for `CN(C)CCNc1cc(-c2cccc(F)c2)c(C#N)c2nc3ccccc3n12` were 1.5, 0.84 µM, 5.88 µM and 7.
On the same counts, the results for `CCN(CC)CCNc1cc(-c2cccc(C(F)(F)F)c2)c(C#N)c2nc3ccccc3n12` are 2.94, 0.42 µM, 102 µM and 243.
Taken in the same sequence, the figures for `CCN(CC)CCNc1cc(C(F)(F)F)c(C#N)c2nc3ccccc3n12` were 2.51, 1.9 µM, 121 µM and 63.7.
For the molecule `CCNCCN(CC)c1cc(-c2ccc(C(F)(F)F)cc2)c(C#N)c2nc3ccccc3n12`, the logD in series [1] came to 3.52. Besides, the half-inhibitory concentration (IC50) came to 0.94 µM with Plasmodium falciparum [2] and 21.5 µM with L6 (Rattus norvegicus, L6, 72 h). For the same molecule, the “Ratio IC50” value in series [3] is listed as 22.9.
Taken in the same sequence, the figures for `CCN(CC)CCNc1cc(-c2cccc(F)c2)c(C#N)c2nc3ccccc3n12` were 1.99, 0.55 µM, 124 µM and 225.
With `CCN(CC)CCNc1cc(-c2ccc(F)cc2)c(C#N)c2nc3ccccc3n12`, the logD in series [1] was found to be 1.9. Also, the IC50 with Plasmodium falciparum [2] is 0.25 µM; in the series on L6 (Rattus norvegicus, L6, 72 h), 56.5 µM. The “Ratio IC50” value in series [3] was found to be 226.
In turn, `CCN(CC)CCCNc1cc(C(F)(F)F)c(C#N)c2nc3ccccc3n12` displayed a logD in series [1] of 2.54. Also, the IC50 in the series on Plasmodium falciparum [2] is 2.08 µM; with L6 (Rattus norvegicus, L6, 72 h), 87.8 µM. In series [3], the “Ratio IC50” value was found to be 42.2.
`N#Cc1c(-c2cccc(C(F)(F)F)c2)cc(NCCN)n2c1nc1ccccc12` had a logD in series [1] of 1.8. Moreover, the IC50 with Plasmodium falciparum [2] worked out at 1 µM; with L6 (Rattus norvegicus, L6, 72 h) it was 11.7 µM. Also, in series [3], the “Ratio IC50” value is 11.7.
`CN(C)CCCNc1cc(-c2ccc(C(F)(F)F)cc2)c(C#N)c2nc3ccccc3n12.Cl.Cl`: in the series on Plasmodium berghei, the Activity worked out at 30.7%. Moreover, the IC50 is 0.26 µM in the series with Plasmodium falciparum [4] and 21.1 µM in the series with L6 (l6).
Molecule `CN(C)CCCNc1cc(-c2ccc(Cl)cc2)c(C#N)c2nc3ccccc3n12` registered a logD in series [1] of 2.09. Besides, the IC50 was 0.21 µM in the series on Plasmodium falciparum [2] and over 210 µM in the series with L6 (Rattus norvegicus, L6, 72 h). In addition, the “Ratio IC50” value in series [3] was over 1000.
Regarding `N#Cc1c(-c2ccc(C(F)(F)F)cc2)cc(NCCN)n2c1nc1ccccc12`, the logD in series [1] was determined as 1.8. Further, the half-maximal inhibitory concentration (IC50) in the series on Plasmodium falciparum [2] was found to be 1.49 µM; with L6 (Rattus norvegicus, L6, 72 h), 5.11 µM. For the same molecule, the “Ratio IC50” value in series [3] was 3.4.
On the same counts, the results for `CCN(CC)CCCNc1cc(-c2ccc(F)cc2)c(C#N)c2nc3ccccc3n12` are 1.93, 0.71 µM, 86.6 µM and 122.
On the same counts, the results for `CN(C)CCCNc1cc(-c2cccc(F)c2)c(C#N)c2nc3ccccc3n12` are 1.54, 0.53 µM, 15.4 µM and 29.
Take `N#Cc1c(-c2ccc(C(F)(F)F)cc2)cc(NCCN2CCOCC2)n2c1nc1ccccc12`: the logD in series [1] was 3.72. Also, the IC50 in the series with Plasmodium falciparum [2] is 0.49 µM; with L6 (Rattus norvegicus, L6, 72 h), 33.3 µM. In addition, the “Ratio IC50” value in series [3] stood at 68.
For the molecule `CCN(CC)CCCNc1cc(-c2ccccc2)c(C#N)c2nc3ccccc3n12`, the logD in series [1] turned out to be 2. Besides, the IC50 in the series on Plasmodium falciparum [2] was 1.53 µM; in the series on L6 (Rattus norvegicus, L6, 72 h), over 230 µM. The “Ratio IC50” value in series [3] was over 150.
In the case of `CCN(CC)CCCNc1cc(-c2ccc(Cl)cc2)c(C#N)c2nc3ccccc3n12`, the pH-dependent lipophilicity (logD) in series [1] came out at 2.57. The IC50 stood at 0.17 µM in the series with Plasmodium falciparum [2] and 48.8 µM in the series on L6 (Rattus norvegicus, L6, 72 h). Also, in series [3], the “Ratio IC50” value is reported as 287.
In turn, `CCN(CC)CCCNc1cc(-c2ccc(C(F)(F)F)cc2)c(C#N)c2nc3ccccc3n12` displayed a log distribution coefficient (logD) in series [1] of 2.97. For the same molecule, the values for the IC50 in the series on Plasmodium falciparum [2] and in the series on L6 (l6) were 0.3 µM and over 190 µM, respectively. The “Ratio IC50” value in series [3] is recorded as over 633.
For the molecule `CN(C)CCNc1cc(-c2ccc(C(F)(F)F)cc2)c(C#N)c2nc3ccccc3n12.Cl`, the Activity with Plasmodium berghei was 0%. Further, the IC50 in the series on Plasmodium falciparum [4] was found to be 0.1 µM; in the series with L6 (l6) it was 147 µM.
For `N#Cc1c(-c2ccc(C(F)(F)F)cc2)cc(NCCCN)n2c1nc1ccccc12`, the logD in series [1] turned out to be 1.46. The IC50 came to 0.92 µM in the series with Plasmodium falciparum [2] and 6.26 µM with L6 (Rattus norvegicus, L6, 72 h). Also, the “Ratio IC50” value in series [3] was determined as 6.8.
Regarding `CCN(CC)CCNc1cc(-c2ccc(Cl)cc2)c(C#N)c2nc3ccccc3n12`, the logD in series [1] was 2.54. In addition, the IC50 in the series with Plasmodium falciparum [2] was determined as 0.06 µM; in the series on L6 (Rattus norvegicus, L6, 72 h), 41 µM. For the same molecule, in series [3], the “Ratio IC50” value is reported as 683.
Taken in the same sequence, the figures for `CN(C)CCNc1cc(-c2ccc(F)cc2)c(C#N)c2nc3ccccc3n12` were 1.41, 0.28 µM, 19.6 µM and 70.
On the same counts, the results for `CCN(CC)CCNc1cc(-c2ccccc2)c(C#N)c2nc3ccccc3n12` are 1.89, 1.11 µM, 120 µM and 108.
Molecule `CN(C)CCCNc1cc(-c2ccc(C(F)(F)F)cc2)c(C#N)c2nc3ccccc3n12` had a pH-dependent lipophilicity (logD) in series [1] of 2.49. Besides, the IC50 in the series on Plasmodium falciparum [2] is 0.44 µM; in the series with L6 (Rattus norvegicus, L6, 72 h), over 200 µM. In series [3], the “Ratio IC50” value was 455.
On the same counts, the results for `CN(C)CCNc1cc(-c2cccc(C(F)(F)F)c2)c(C#N)c2nc3ccccc3n12` are 2.45, 0.29 µM, 7.14 µM and 24.6.
On the same counts, the results for `N#Cc1c(-c2cccc(C(F)(F)F)c2)cc(NCCCN)n2c1nc1ccccc12` are 1.46, 0.63 µM, 4.33 µM and 6.9.
With `CCN(CC)CCCNc1cc(-c2cccc(C(F)(F)F)c2)c(C#N)c2nc3ccccc3n12.Cl.Cl`, in the series on Plasmodium berghei, the Activity amounted to 0%. Moreover, the IC50 in the series with Plasmodium falciparum [4] stood at 0.25 µM; in the series with L6 (l6) it was 11.8 µM.
In series [1], `CCN(CC)CCCNc1cc(-c2cccc(C(F)(F)F)c2)c(C#N)c2nc3ccccc3n12` yielded a logD of 2.97. Further, the IC50 was found to be 0.19 µM with Plasmodium falciparum [2] and 24.3 µM in the series on L6 (l6). Moreover, in series [3], the “Ratio IC50” value came out at 128.
As to `N#Cc1c(-c2ccccc2)cc(NCCCN)n2c1nc1ccccc12`, the logD in series [1] worked out at 0.49. Further, the IC50 in the series with Plasmodium falciparum [2] was 2.27 µM; in the series on L6 (Rattus norvegicus, L6, 72 h) it was 11.9 µM. The “Ratio IC50” value in series [3] worked out at 5.2.
On the same counts, the results for `CN(C)CCCNc1cc(C(F)(F)F)c(C#N)c2nc3ccccc3n12` are 2.06, 3.16 µM, 166 µM and 52.5.
The molecule `CN(C)CCNc1cc(-c2ccc(C(F)(F)F)cc2)c(C#N)c2nc3ccccc3n12` came in with a logD in series [1] of 2.45. The IC50 is 0.13 µM in the series with Plasmodium falciparum [2] and over 210 µM in the series with L6 (Rattus norvegicus, L6, 72 h). The “Ratio IC50” value in series [3] is listed as over 1600.
Consider `N#Cc1c(C(F)(F)F)cc(NCCN)n2c1nc1ccccc12`, for which the logD in series [1] worked out at 1.37. In addition, the IC50 is 3.09 µM in the series with Plasmodium falciparum [2] and 40.1 µM in the series on L6 (Rattus norvegicus, L6, 72 h). The “Ratio IC50” value in series [3] was determined as 13.
On to `N#Cc1c(-c2ccc(C(F)(F)F)cc2)cc(NCCN2CCCCC2)n2c1nc1ccccc12`, for which the logD in series [1] worked out at 3.78. For the same molecule, the 50% inhibitory concentration (IC50) is 0.054 µM with Plasmodium falciparum [2] and 193 µM in the series with L6 (Rattus norvegicus, L6, 72 h). For the same molecule, the “Ratio IC50” value in series [3] came out at 3581.
Taken in the same sequence, the figures for `N#Cc1c(-c2ccc(C(F)(F)F)cc2)cc(NCCN2CCCC2)n2c1nc1ccccc12` were 2.58, 0.053 µM, 146 µM and 2751.
Taken in the same sequence, the figures for `CCN(CC)CCCNc1cc(-c2cccc(F)c2)c(C#N)c2nc3ccccc3n12` were 2.02, 0.46 µM, 55.7 µM and 121.
With `CN(C)CCCNc1cc(-c2cccc(C(F)(F)F)c2)c(C#N)c2nc3ccccc3n12.Cl.Cl`, in the series with Plasmodium berghei, the Activity is listed as 0%. The results for the IC50 in the series on Plasmodium falciparum [4] and in the series with L6 (l6) were 0.49 µM and 19.2 µM, respectively.
In turn, `CN(C)CCCNc1cc(-c2cccc(C(F)(F)F)c2)c(C#N)c2nc3ccccc3n12` had a log distribution coefficient (logD) in series [1] of 2.49. Moreover, the IC50 with Plasmodium falciparum [2] was 0.38 µM; in the series on L6 (Rattus norvegicus, L6, 72 h), 180 µM. The “Ratio IC50” value in series [3] worked out at 474.
`N#Cc1c(-c2ccc(C(F)(F)F)cc2)cc(NCCCN2CCOCC2)n2c1nc1ccccc12` gave a pH-dependent lipophilicity (logD) in series [1] of 3.79. Moreover, the IC50 in the series with Plasmodium falciparum [2] amounted to 1.22 µM; in the series on L6 (Rattus norvegicus, L6, 72 h) it was 98.3 µM. Further, the “Ratio IC50” value in series [3] was found to be 80.6.
In the case of `CN(C)CCNc1cc(-c2ccc(Cl)cc2)c(C#N)c2nc3ccccc3n12`, in series [1], the logD stood at 2.05. Also, the IC50 in the series with Plasmodium falciparum [2] was 0.31 µM; in the series on L6 (Rattus norvegicus, L6, 72 h) it was 19.5 µM. In addition, the “Ratio IC50” value in series [3] was 62.9.
In the case of `COc1cc([C@@H]2c3cc4c(cc3[C@H](O)[C@H]3COC(=O)[C@H]23)OCO4)cc(OC)c1OC` [PODOFILOX], in the series with L6 (Rattus norvegicus, L6, 72 h), the IC50 stood at 0.009 µM.
In series [1], `CN(C)CCCNc1cc(-c2ccccc2)c(C#N)c2nc3ccccc3n12` displayed a logD of 1.52. Further, the IC50 with Plasmodium falciparum [2] is 1.52 µM; in the series with L6 (Rattus norvegicus, L6, 72 h), 108 µM. For the same molecule, in series [3], the “Ratio IC50” value worked out at 71.
